In ChEMBL document CHEMBL5360626, “Bifunctionalized Betulinic Acid Conjugates with C-3-Monodesmoside and C-28-Triphenylphosphonium Moieties with Increased Cancer Cell Targetability” (J Nat Prod, 2023):
Blank lines part the entries; values can stand above or below the compound they belong to. Activity calls are given as the source filed them. The calls are words filed in the database; no cut-off is given here.

What was measured:
PC-3 [1] = assay: Cytotoxicity against human PC-3 cells incubated for 72 hrs by MTT assay; format: functional, cell-based; details: PC-3, 72 h
[2] = Selectivity index, ratio of IC50 for human skin fibroblast to IC50 for human PC-3 cells; format: toxicity; details: human skin fibroblasts and PC-3 cells, read-out: Ratio IC50
Caco-2 = assay: Cytotoxicity against human Caco-2 cells incubated for 72 hrs by MTT assay; format: functional, cell-based; details: Caco-2, 72 h
[3] = Selectivity index, ratio of IC50 for human skin fibroblast to IC50 for human Caco-2 cells
MCF7 = assay: Cytotoxicity against human MCF7 cells incubated for 72 hrs by MTT assay; format: functional, cell-based; details: MCF7, 72 h
[4] = Cytotoxicity against human skin fibroblast cells incubated for 72 hrs by MTT assay; format: toxicity, cell-based
[5] = Drug accumulation in human PC-3 cells at 1 uM incubated for 2 hrs by LC-MS/MS analysis; format: ADME, cell-based; details: pc-3, 2 h
PC-3 [6] = assay: Induction of mitochondrial transmembrane potential dissipation in human PC-3 cells at 30 uM incubated for 1 hr by TMRE staining based flow cytometry; format: functional, cell-based
PC-3 [7] = assay: […] of ROS production in human PC-3 cells at 30 uM incubated for 1 hr by MitoSOX staining based flow cytometry; format: functional, cell-based
PC-3 [8] = assay: Downregulation of Akt expression in human PC-3 cells at IC50 incubated for 3 days by Western blot analysis; format: functional, cell-based; details: time 3.0 day
PC-3 [9] = assay: Upregulation of Cas3 expression in human PC-3 cells at IC50 incubated for 3 days by Western blot analysis; format: functional, cell-based; details: time 3.0 day
PC-3 [10] = assay: Downregulation of ATG14 expression in human PC-3 cells at IC50 incubated for 3 days by Western blot analysis; format: functional, cell-based; details: time 3.0 day
PC-3 [11] = assay: Downregulation of Beclin-1 expression in human PC-3 cells at IC50 incubated for 3 days by Western blot analysis; format: functional, cell-based; details: time 3.0 day
PC-3 [12] = assay: Downregulation of LC-3 expression in human PC-3 cells at IC50 incubated for 3 days by Western blot analysis; format: functional, cell-based; details: time 3.0 day

Ratio IC50 [3]: 5.9 | Drug uptake [5]: 3.5 µM
SMILES: C=C(C)[C@@H]1CC[C@]2(C(=O)OCCCCCC[P+](c3ccccc3)(c3ccccc3)c3ccccc3)CC[C@]3(C)[C@H](CC[C@@H]4[C@@]5(C)CC[C@H](O[C@@H]6O[C@@H](C)[C@H](O)[C@@H](O)[C@H]6O)C(C)(C)[C@@H]5CC[C@]43C)[C@@H]12.[Br-]
IC50 (PC-3 [1]): 1.2 µM | selectivity ratio [2]: 9.7 | IC50 (Caco-2): 2 µM | IC50 (MCF7): 1.1 µM | IC50 at 72 h [4]: 10.8 µM | Activity (PC-3 [6]): Active | Activity (PC-3 [7]): Active | Activity (PC-3 [8]): Active | Activity (PC-3 [9]): Active | Activity (PC-3 [10]): Active | Activity (PC-3 [11]): Active | Activity (PC-3 [12]): Active

Ratio IC50 [3]: 2.4 | Drug uptake [5]: 3.5 µM
SMILES: C=C(C)[C@@H]1CC[C@]2(C(=O)OCCCCCC[P+](c3ccccc3)(c3ccccc3)c3ccccc3)CC[C@]3(C)[C@H](CC[C@@H]4[C@@]5(C)CC[C@H](O[C@H]6O[C@H](CO)[C@@H](O)[C@H](O)[C@@H]6O)C(C)(C)[C@@H]5CC[C@]43C)[C@@H]12.[Br-]
IC50 (PC-3 [1]): 2.3 µM | selectivity ratio [2]: 2.5 | IC50 (Caco-2): 2.4 µM | IC50 (MCF7): 2 µM | IC50 at 72 h [4]: 2.9 µM | Activity (PC-3 [6]): Active | Activity (PC-3 [7]): Active

The next lines start with the compound.

SMILES: C=C(C)[C@@H]1CC[C@]2(C(=O)OCCCCCC[P+](c3ccccc3)(c3ccccc3)c3ccccc3)CC[C@]3(C)[C@H](CC[C@@H]4[C@@]5(C)CC[C@H](O[C@@H]6O[C@H](CO)[C@@H](O)[C@H](O)[C@H]6O)C(C)(C)[C@@H]5CC[C@]43C)[C@@H]12.[Br-]
IC50 (PC-3 [1]): 0.4 µM | selectivity ratio [2]: 32 | IC50 (Caco-2): 1.1 µM | Ratio IC50 [3]: 10.2 | IC50 (MCF7): 0.7 µM | IC50 at 72 h [4]: 16.5 µM | Drug uptake [5]: 172.9 µM | Activity (PC-3 [6]): Active | Activity (PC-3 [7]): Active | Activity (PC-3 [8]): Active | Activity (PC-3 [9]): Active | Activity (PC-3 [10]): Active | Activity (PC-3 [11]): Active | Activity (PC-3 [12]): Active

SMILES: C=C(C)[C@@H]1CC[C@]2(C(=O)O)CC[C@]3(C)[C@H](CC[C@@H]4[C@@]5(C)CC[C@H](O)C(C)(C)[C@@H]5CC[C@]43C)[C@@H]12 [BETULINIC ACID]
Drug uptake [5]: 0.035 µM

SMILES: C=C(C)[C@@H]1CC[C@]2(C(=O)OCCCCCC[P+](c3ccccc3)(c3ccccc3)c3ccccc3)CC[C@]3(C)[C@H](CC[C@@H]4[C@@]5(C)CC[C@H](O)C(C)(C)[C@@H]5CC[C@]43C)[C@@H]12.[Br-]
IC50 (PC-3 [1]): 0.8 µM | selectivity ratio [2]: 8.3 | IC50 (Caco-2): 1.4 µM | Ratio IC50 [3]: 4.7 | IC50 (MCF7): 0.8 µM | IC50 at 72 h [4]: 8.5 µM | Drug uptake [5]: 3.5 µM
